Source: BigSolDB 2.1

## Cl.Nc1ccccc1
In ethanol, 288.15 K
  solubility (mole fraction): 0.082
In ethanol, 298.15 K
  solubility (mole fraction): 0.098
In ethanol, 308.15 K
  solubility (mole fraction): 0.115
In ethanol, 318.15 K
  solubility (mole fraction): 0.134
In ethanol, 328.15 K
  solubility (mole fraction): 0.155
In methanol, 288.15 K
  solubility (mole fraction): 0.144
In methanol, 298.15 K
  solubility (mole fraction): 0.165
In methanol, 308.15 K
  solubility (mole fraction): 0.188
In methanol, 318.15 K
  solubility (mole fraction): 0.208
In methanol, 328.15 K
  solubility (mole fraction): 0.23
In n-propanol, 288.15 K
  solubility (mole fraction): 0.047
In n-propanol, 298.15 K
  solubility (mole fraction): 0.057
In n-propanol, 308.15 K
  solubility (mole fraction): 0.07
In n-propanol, 318.15 K
  solubility (mole fraction): 0.083
In n-propanol, 328.15 K
  solubility (mole fraction): 0.098
